Source: patent US20230355815A1, “ACTIVE DELIVERY OF RADIOTRACERS ACROSS THE BLOOD BRAIN BARRIER” (The Board of Trustees of the Leland Stanford Junior …, priority 2021, published 2023)

How the values were obtained:
TREM1 = settings: animal models of sepsis; cited from earlier work
TSPO = molecular target: T1, TSPO (Mus musculus, UniProt P50637); assay: TSPO-PET/CT imaging of EAE mice; type: in vivo
T1 construct: endogenous in cells; host or cells: tissues of living C57BL/6 mice (EAE and naive)
Experimental: Mice were categorized as pre-symptomatic (pre; score 0, >1 g weight loss in 48 h), low (score 0.5-2), or high EAE (score 2.5-4.5). Anti-TREM1 monoclonal antibody (mAb) was DOTA-conjugated and radiolabeled with ^64Cu. PET/CT imaging was performed 20 hours post-injection of [^64Cu]TREM1-mAb (95-120 μCi, >99% RCP) or 50-60 min after TSPO-targeted radiotracer [^18F]GE-180 (231-269 μCi, >99% RCP). Following PET, mice were perfused to remove unbound intravascular tracer and radioactivity in central nervous system (CNS) tissues was measured using a gamma counter.
TREMl-PET is a more sensitive tool for detecting neuroinflammation in EAE compared to TSPO-PET Next, we examined the sensitivity of TREMl-PET compared to the gold standard approach for assessing neuroinflammation in vivo for both preclinical and clinical research—TSPO-PET. Naive and EAE mice were injected with [^18F]GE-180. a highly sensitive and selective tracer for TSPO in rodents (26), and PET images were acquired 50-60 min following tracer administration. […] Specifically, peritoneum adhesions encompassing the spleen. mesentery, and stomach, as well as abdominal granulomatous inflammation, have been reported in mice injected with CFA (27). […]
[^18F]GE-180 was synthesized as previously described (46). Chemical and radiochemical purity were determined by reverse-phase analytical HPLC (Phenomenex Luna column, 150×4.6 mm. particle size 3 μm. pore size 100 A) using a 11 min 50-95% gradient (0.1 mg/mL ascorbic acid in H2O:MeCN. monitored by gamma detection and UV at 254 and 280 nm). […]
PET images were analyzed using Vivoquant software (version 4.0. inviCRO) and visualized using Inveon Research Workspace (IRW, version 4.0: Siemens). Brain uptake was quantified as previously described (47). lo brief, a 3-dimensional mouse brain atlas was utilized to obtain tracer uptake values in a priori regions of interest (whole brain, pons. medulla. and cerebellum). Cervical/thoracic and lumbar spinal cord quantification was obtained via segmentation and exclusion of the vertebral column. […]

TREM1 signaling = assay: LP17 treatment study in EAE mice; type: in vivo, mouse; settings: vs saline
Experimental: Spinal cords were further analyzed via high-resolution autoradiography. Flow cytometry was performed on CNS tissues using TREM1, CD45, CD11b, CD11c, CD3, and Ly-6G to delineate immune cell populations. Quantitative PCR was performed to assess changes in mRNA expression. LP17, a decoy receptor peptide known to attenuate TREM1 signaling, was administered daily to pre EAE mice (10, 15 mg/kg, or saline i.p) for 10 days.
Blocking TREMi signaling genetically and pharmacologically attenuates EAE severity. To explore the biological relevance of TREMl in EAE development and progression, we assessed disease trajectory in KO EAE compared to WT EAE animals. While 83% of WT mice developed EAE, only 40% of Trem/KO mice developed symptoms during the same timeframe. […] Next, to determine if blocking TREM I signaling during disease development could have therapeutic effects, we treated WT EAE animals with LP 17 (10 or 15 mg/kg)—a 17 mer peptide decoy receptor, previously shown to attenuate TREMi signaling (25, 38)—and compared disease progression to vehicle (saline) treated mice.
LPI 7 peptide (sequence: […] […]) was synthesized by the Protein and Nucleic Acid Core Facility at Stanford University as previously described (J 9). WT EAE mice were induced with EAE and monitored daily as previously outlined. […] LP 17 or saline was administered daily (i.p) for 10 days and disease level was recorded.

T1 sequence (P50637 whole entry): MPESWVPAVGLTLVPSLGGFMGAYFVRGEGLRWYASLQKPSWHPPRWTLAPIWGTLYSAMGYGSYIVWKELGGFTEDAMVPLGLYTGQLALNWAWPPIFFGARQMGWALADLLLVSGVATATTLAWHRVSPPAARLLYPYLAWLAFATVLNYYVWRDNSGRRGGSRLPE

CC(C)[C@]12O[C@H]1[C@@H]1O[C@]13[C@]1(O[C@H]1C[C@H]1C4=C(CC[C@@]13C)C(=O)OC4)[C@@H]2O [triptolide]
pro-inflammatory mediators and survival (TREM1): reduce pro-inflammatory mediators and increase survival

CCN(CC)C(=O)[C@H]1CCCc2c1c1c(OC)cccc1n2CC[18F] [[^18F]GE-180]
TSPO-PET signal in the brain (TSPO; EAE vs naive mice): no significant differences | TSPO-PET uptake in cervical/thoracic and lumbar spinal cords (TSPO; EAE vs naive mice, 50-60 min post-injection): significantly reduced uptake | CNS tracer binding (TSPO; control mice (CFA emulsion without MOG) vs naive untouched mice): decreased

LP17: 17 mer peptide decoy receptor attenuating TREM1 signaling; sequence LQVTDSGL YRCVIYHPP (LQVTDSGLYRCVIYHPP)
EAE disease severity (TREM1 signaling; 10 mg/kg daily i.p. for 10 days from pre EAE stage): not | EAE disease severity (TREM1 signaling; 15 mg/kg daily i.p. for 10 days from pre EAE stage): Significant attenuation of disease severity | pro-inflammatory mediators and survival (TREM1): reduce pro-inflammatory mediators and increase survival
